5 sequences from US10576145B2, “CD200 inhibitors and methods of use thereof” (REGENTS OF THE UNIVERSITY OF MINNESOTA, priority 2014, dated 2020) can be followed below.

“Also recorded” adds a separate entry of the source.

The subject of one experiment is EMT6 tumor bearing mice. Kind of experiment: EMT6 breast carcinoma model: tumor lysate + CpG +/- competitive inhibitor, survival. The experiment is classed as in vivo, BALB/c mice. The method, then:
FIG. 6. Percent survival of mice inoculated with 1×10^6 EMT6 cells. To determine if our competitive inhibitors worked in other tumor models, mice were inoculated in the fat pad with 1×10^6 EMT6 cells. Specifically, mice were vaccinated with 65 μg of EMT6 tumor lysates+50 μg of adjuvant CpG and 50 μg of different completive inhibitors (6059, 4004, 4013 and 6061) and monitored for survival. Saline and tumor lysate+adjuvant CpG were used as controls.
FIGS. 19A-19B. Select CD200 antagonists enhance survival. (FIG. 19A) EMT6 tumor bearing mice were vaccinated with tumor lysate, CpG+/−CD200 antagonist 4004, 4013 or 6059. […] Log-rank analysis was used for survival.
(§1) Tumors were implanted into female C57BL/6 mice (6-8 wk old) (Jackson Laboratory) and maintained in a pathogen-free facility according to the guidelines of the University of Minnesota Animal Care and Use Committee. The GL261 orthotopic transplant model was established in C57BL/6 (B6) mice by inoculation with 15,000 GL261-Luc^+ cells in 1 μl of saline. Tumors were implanted stereotactically into the right striatum; coordinates were 2.5 mm lateral, 0.5 mm anterior of bregma, and 3 mm deep from the cortical surface of the brain^19. Tumor burden was determined by bioluminescent imaging. Light emitted from the tumors was quantified using Living Image software (Xenogen) and expressed as photons per second per centimeter squared per steradian (p/s/cm^2/sr). GL261 cells for tumor lysate vaccines were cultured in neural stem cell media consisting of DMEM/F12 (1:1) with L-glutamine, sodium bicarbonate, penicillin/streptomycin (100 U/ml), B27 and N2 supplements (Life Technologies), and 0.1 mg/ml Normocin (Invivogen). Cultures were maintained at 5% 02 and supplemented with 20 ng/ml EGF and FGF semiweekly (R&D Systems, Minneapolis, Minn.). […] Mice were euthanized when tumors reached 1000 mm^3. […] Tumor cells used to establish both models were cultured in DMEM containing 10% FBS, penicillin/streptomycin (100 U/ml), and 0.1 mg/ml Normocin (Invivogen) in atmospheric oxygen.

For a further experiment, the system named is splenocytes. As to the kind of experiment: Splenocytes pulsed with OVA + antagonist, OT-1 T cells added, cytokine production by flow cytometric bead array. It counts as cell-based. Conditions: pulsed 24 hours, 48 hours with OT-1 T cells. The method, then:
FIGS. 11A-11B. Splenocytes were pulsed with OVA+an inhibitor peptide and incubated for 24 h. Following incubation, cells were washed, purified OT1 were added to wells and incubated for an additional 48 hrs then analyzed for FIG. 11A) TNFa and IL-6 production; and FIG. 11B) IL-2 and IL-17 production. Error bars indicate +/−SEM (n=4/group; *P<0.05; ** P<0.01).
Whether the different antagonists described by Gorczynski et. al. (J Surg Res 2008; 145(1): 87-96) could modulate or reverse the suppressive effects of the tumor microenvironment was also investigated. It was concluded that different antagonists either act through different CD200R isoforms or have different biological effects on the same receptor. These conclusions were supported by experiments where splenocytes were pulsed with OVA+selected CD200R antagonists (6061, 6069, 4004, 4006, 4013) for 24 hours. The splenocytes were then washed and cultured for 48 hours with the addition of OT-1 T cells. The cultures were then assessed for cytokine production using a flow cytometric bead array. […] These experiments support the hypothesis that exosomes express the CD200 protein thereby inhibiting the ability to prime a T cell response in the draining lymph nodes of glioma bearing mice. Other antagonists were similarly evaluated.
For orientation: In flow cytometry, cells or beads pass a laser one at a time.

Another experiment relates to GL261 tumor bearing mice. As to the kind of experiment: GL261 glioma model: tumor lysate vaccine +/- antagonist, tumor growth by imaging and survival. Conditions: for Tumor growth: GL261, tumor lysate vaccine + antagonist vs tumor lysate alone or saline, weekly imaging; for Survival: GL261 glioma model, tumor lysate vaccine + antagonist. The experiment is classed as in vivo, C57BL/6 mice. The method, then:
FIGS. 4A-4C. FIG. 4A) GL261 tumor bearing mice were inoculated with 50 μg of antagonist 6059 one day prior to vaccination with tumor lysate (65 μg)+/−the antagonist 6059 (50 μg). FIG. 4B) Mice were imaged weekly for tumor growth. The following groups were studied: saline (1), tumor lysate (2), and tumor lysate+6059 (3). FIG. 4C) Percent survival post inoculation for saline (1), tumor lysate (2), and tumor lysate+6059 (3) groups.
FIGS. 5A-5B. FIG. 5A) GL261 tumor bearing mice were inoculated with 10 μg of 6059 on day 2 into the tumor site then with 50 μg of antagonist 6059 one day prior to vaccination with tumor lysate (65 μg)+the antagonist 6059 (50 μg). FIG. 5B) Mice were imaged weekly for tumor growth. The following groups were studied: saline (1), tumor lysate+6059 (2), and CNS+tumor lysate+6059 (3) groups.
Whether vaccination with CD200R antagonists could enhance the survival of tumor-bearing mice was also studied. […] GL261 tumor bearing mice were vaccinated weekly with saline, tumor lysates (TL) or tumor lysates+an antagonist (4004, 4013, 6059).
Tumor-bearing mice were inoculated in the brain with 10 μg of the inhibitor 6059 at the same coordinates at which the tumor was injected two days previously. This was followed by weekly injections of tumor lysate+inhibitor (FIGS. 5A-5B).
as §1
Tumor lysates were prepared by dissociating tumor cells with non-enzymatic dissociation solution (Sigma). Cells were then washed 3 times with PBS, re-suspended in 500 μL PBS, and frozen overnight at −80° C. Cells were then lysed by five freeze/thaw cycles of freezing in liquid nitrogen and thawing in a 55° C. water bath. Cell debris was pelleted by centrifugation at 14,000 RCF, and the protein concentration of the supernatant was determined using a Bradford assay. Lysates were stored at −80° C. until use. Each vaccine was prepared on the day of vaccination and consisted of 65 μg of protein tumor lysate and 10 μg Poly:ICLC (Oncovir, Inc.), with or without 50 μg of the 6059 peptide antagonist, in a final volume of 100 μL injected intradermally in the back of the neck. For survival studies, vaccines were administered weekly starting three days post-tumor implantation for a total of 6 doses. In T cell priming experiments, CD8 T-cell priming experiments, animals were vaccinated intradermally on four consecutive days with 100 μg Ovalbumin (OVA) and 10 μg Poly:ICLC, and once more on day eleven^19.

Another experiment relates to CD200 receptor. As to the kind of experiment: CD11b cells of wild type or CD200 receptor knock out mice pulsed with OVA+Poly:ICLC +/- P1A12, OT-I cells added, IFN gamma. Conditions: wild type vs CD200 receptor knock out CD11b cells, 48 hour incubation; listed as P1A12. It counts as cell-based. The method, then:
FIG. 24. […] CD11b cells isolated for wild type or CD200 receptor knock out mice were pulsed with OVA+Poly:ICLC+/−P1A12 inhibitor. Scrambled inhibitor was use as a control. Cells were washed and OT-I Cells were added. A. Supernatants were analyzed for IFN gamma following 48 hour incubation.
(§2) Mice were vaccinated as described in FIGS. 4A-4C with peptide inhibitor P1A12. Blood from mice vaccinated with tumor lysate+CpG or tumor lysate+CpG+inhibitor were analyzed for MDSC expansion (FIG. 23). […] CD11b cells isolated for wild type or CD200 receptor knock out mice were pulsed with OVA+Poly:ICLC+/−P1A12 inhibitor, and scrambled inhibitor was used as a control (FIG. 24). Cells were washed and OT-I Cells were added. Supernatants were analyzed for IFN gamma following 48 hour incubation.

The next experiment deals with mice. As to the kind of experiment: MDSC expansion in blood of mice vaccinated with tumor lysate + CpG +/- inhibitor. The experiment is classed as in vivo. The note with it: tumor lysate+CpG+inhibitor vs tumor lysate+CpG, listed as P1A12. The method, then:
FIG. 23. […] Mice were vaccinated as described in FIG. 4 with peptide inhibitor P1A12. Blood from mice vaccinated with tumor lysate+CpG or tumor lysate+CpG+inhibitor were analyzed for MDSC expansion.
as §2

As to RCSLKTSQE [Antagonist 6061], the Survival result in the experiment with EMT6 tumor bearing mice is recorded as “significantly extended survival benefit”.

Regarding SQKVSGTACLTLY [Antagonist 4006], the “Cytokine profile (TNFa, IL-6, IL-2, IL-17)” value in the experiment with splenocytes was “different cytokine profiles”.

As for TASLRCSLKTSQE [Antagonist 4004], the Tumor growth entry in the experiment on GL261 tumor bearing mice is “tumors grow faster in mice vaccinated with saline or tumor lysate alone compared to mice vaccinated with tumor lysate plus an antagonist”. The Survival result in the experiment on EMT6 tumor bearing mice was “results translated to a breast carcinoma (EMT6) model; also recorded: enhanced survival benefit; also recorded: significantly extended survival benefit”. For the same sequence, the “Cytokine profile (TNFa, IL-6, IL-2, IL-17)” value in the experiment on splenocytes is on record as “different cytokine profiles”.

Consider LFNTFGSQKVSGT [Antagonist 4013], for which, in the experiment on GL261 tumor bearing mice, the Tumor growth result is given as “tumors grow faster in mice vaccinated with saline or tumor lysate alone compared to mice vaccinated with tumor lysate plus an antagonist”. Further, in the experiment on EMT6 tumor bearing mice, the Survival entry is “results translated to a breast carcinoma (EMT6) model; also recorded: enhanced survival benefit; also recorded: significantly extended survival benefit”.

As for VTWQKKKAVSPANM [Antagonist C-A12], the Survival entry with GL261 tumor bearing mice was “even greater survival”; in the experiment with GL261 tumor bearing mice (listed as P1-A12), “enhances survival”. In addition, the “Action on the CD200 receptor (IFN gamma in supernatants)” value in the experiment with CD200 receptor is “acts as an agonist for the CD200 receptor”. Further, the “MDSC expansion in vivo” value with mice was “inhibits MDSC expansion in vivo”.
